Literature values as cited in US6683169B2, “Nucleic acid encoding the human peptide histidine transporter 1 and methods of use thereof” (Rutgers, The State University of New Jersey, priority 2000, dated 2004).
Peptide text beside a SMILES is read from it.

Target: T1, rPHT1 (Rattus norvegicus, UniProt O09014)
T1 construct: host or cells: Xenopus oocytes
Settings: rPHT1 in Xenopus oocytes; for inhibition of histidine transport: inhibition studies

T1 sequence (O09014 whole entry): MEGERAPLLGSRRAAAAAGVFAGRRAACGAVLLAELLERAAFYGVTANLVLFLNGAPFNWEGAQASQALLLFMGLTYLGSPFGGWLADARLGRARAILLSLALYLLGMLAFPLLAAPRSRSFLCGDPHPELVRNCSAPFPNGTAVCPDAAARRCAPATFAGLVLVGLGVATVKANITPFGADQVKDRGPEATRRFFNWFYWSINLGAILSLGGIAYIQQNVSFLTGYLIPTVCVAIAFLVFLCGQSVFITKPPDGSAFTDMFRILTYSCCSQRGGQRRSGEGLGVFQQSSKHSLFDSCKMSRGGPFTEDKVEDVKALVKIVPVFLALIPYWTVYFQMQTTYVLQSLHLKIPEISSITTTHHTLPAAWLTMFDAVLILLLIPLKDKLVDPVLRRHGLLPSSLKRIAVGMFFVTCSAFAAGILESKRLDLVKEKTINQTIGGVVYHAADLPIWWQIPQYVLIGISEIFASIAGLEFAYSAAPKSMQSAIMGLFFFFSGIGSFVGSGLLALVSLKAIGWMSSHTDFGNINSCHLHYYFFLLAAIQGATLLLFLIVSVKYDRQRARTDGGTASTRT

Structure (SMILES)	inhibition of histidine transport	carnosine uptake versus water-injected control oocytes ([3H]carnosine)
NCC(=O)NCC(=O)O [Gly-Gly] (H-Gly-Gly-OH)	inhibited	–
NCC(=O)NCC(=O)NCC(=O)O [Gly-Gly-Gly] (H-Gly-Gly-Gly-OH)	inhibited	–
NCCC(=O)N[C@@H](Cc1cnc[nH]1)C(=O)O [carnosine]	inhibited	significantly higher
CC(C)C[C@H](NC(=O)CN)C(=O)O [Gly-Leu]	inhibited	–
